What all share (assay type): cell-based
The target in assay [1] is N-type calcium channel subunits (α1B, α2δ, and β3a) (Homo sapiens, UniProt Q00975). The experiment in a line: Block of Cav2.2 channel, whole cell voltage clamp, manual and PatchXpress. Conditions: Table 5; table follows Assay Example 3 (whole cell voltage clamp / PatchXpress); assay not given. The method in brief:
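Percent block taken as current amplitude ratio with versus without compound, applied in rising doses; IC50 fitted where one cell received multiple doses. Protocol: 50 ms pulses to +20 mV at 0.067 Hz from […] or −90 mV holding; P/n leak subtraction, no junction-potential correction; manual and PatchXpress recordings.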

In assay [2] the target is human α1H T-type channels (Homo sapiens, UniProt O95180). The assay can be described thus: T-type calcium channel block, whole cell patch clamp, α1H. As to conditions: HEK cells stably expressing human α1H; mainly non-inactivated protocol; values above 10,000 nM represented as 10000. Put shortly: (§1)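 Blockade of T-type current was measured in human α1G- or α1H-expressing HEK 293 cells using whole-cell recording with ~5 MΩ pipettes. Test compounds, dissolved in external solution containing 0.1-0.01% DMSO, were applied close to the cell, and block was examined under both non-inactivating and inactivating voltage protocols.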
On the technique in general: The patch-clamp technique gives a direct electrical read-out from membranes.

Assay [3] deals with human α1G T-type channels (Homo sapiens, UniProt O43497). The assay can be described thus: T-type calcium channel block, whole cell patch clamp, α1G. Conditions: HEK cells stably expressing human α1G; mainly non-inactivated protocol; values above 10,000 nM represented as 10000. Put shortly: as §1

The values below come from patent publication US20120245137A1 (Zalicus Pharmaceuticals Ltd., priority 2009, published 2012).

As a reminder, the IC50 is the concentration that inhibits the measured activity by half.

Where only a bound is given, the exact number is not on record here.

Chain of N-type calcium channel subunits (α1B, α2δ, and β3a) (Q00975 whole entry): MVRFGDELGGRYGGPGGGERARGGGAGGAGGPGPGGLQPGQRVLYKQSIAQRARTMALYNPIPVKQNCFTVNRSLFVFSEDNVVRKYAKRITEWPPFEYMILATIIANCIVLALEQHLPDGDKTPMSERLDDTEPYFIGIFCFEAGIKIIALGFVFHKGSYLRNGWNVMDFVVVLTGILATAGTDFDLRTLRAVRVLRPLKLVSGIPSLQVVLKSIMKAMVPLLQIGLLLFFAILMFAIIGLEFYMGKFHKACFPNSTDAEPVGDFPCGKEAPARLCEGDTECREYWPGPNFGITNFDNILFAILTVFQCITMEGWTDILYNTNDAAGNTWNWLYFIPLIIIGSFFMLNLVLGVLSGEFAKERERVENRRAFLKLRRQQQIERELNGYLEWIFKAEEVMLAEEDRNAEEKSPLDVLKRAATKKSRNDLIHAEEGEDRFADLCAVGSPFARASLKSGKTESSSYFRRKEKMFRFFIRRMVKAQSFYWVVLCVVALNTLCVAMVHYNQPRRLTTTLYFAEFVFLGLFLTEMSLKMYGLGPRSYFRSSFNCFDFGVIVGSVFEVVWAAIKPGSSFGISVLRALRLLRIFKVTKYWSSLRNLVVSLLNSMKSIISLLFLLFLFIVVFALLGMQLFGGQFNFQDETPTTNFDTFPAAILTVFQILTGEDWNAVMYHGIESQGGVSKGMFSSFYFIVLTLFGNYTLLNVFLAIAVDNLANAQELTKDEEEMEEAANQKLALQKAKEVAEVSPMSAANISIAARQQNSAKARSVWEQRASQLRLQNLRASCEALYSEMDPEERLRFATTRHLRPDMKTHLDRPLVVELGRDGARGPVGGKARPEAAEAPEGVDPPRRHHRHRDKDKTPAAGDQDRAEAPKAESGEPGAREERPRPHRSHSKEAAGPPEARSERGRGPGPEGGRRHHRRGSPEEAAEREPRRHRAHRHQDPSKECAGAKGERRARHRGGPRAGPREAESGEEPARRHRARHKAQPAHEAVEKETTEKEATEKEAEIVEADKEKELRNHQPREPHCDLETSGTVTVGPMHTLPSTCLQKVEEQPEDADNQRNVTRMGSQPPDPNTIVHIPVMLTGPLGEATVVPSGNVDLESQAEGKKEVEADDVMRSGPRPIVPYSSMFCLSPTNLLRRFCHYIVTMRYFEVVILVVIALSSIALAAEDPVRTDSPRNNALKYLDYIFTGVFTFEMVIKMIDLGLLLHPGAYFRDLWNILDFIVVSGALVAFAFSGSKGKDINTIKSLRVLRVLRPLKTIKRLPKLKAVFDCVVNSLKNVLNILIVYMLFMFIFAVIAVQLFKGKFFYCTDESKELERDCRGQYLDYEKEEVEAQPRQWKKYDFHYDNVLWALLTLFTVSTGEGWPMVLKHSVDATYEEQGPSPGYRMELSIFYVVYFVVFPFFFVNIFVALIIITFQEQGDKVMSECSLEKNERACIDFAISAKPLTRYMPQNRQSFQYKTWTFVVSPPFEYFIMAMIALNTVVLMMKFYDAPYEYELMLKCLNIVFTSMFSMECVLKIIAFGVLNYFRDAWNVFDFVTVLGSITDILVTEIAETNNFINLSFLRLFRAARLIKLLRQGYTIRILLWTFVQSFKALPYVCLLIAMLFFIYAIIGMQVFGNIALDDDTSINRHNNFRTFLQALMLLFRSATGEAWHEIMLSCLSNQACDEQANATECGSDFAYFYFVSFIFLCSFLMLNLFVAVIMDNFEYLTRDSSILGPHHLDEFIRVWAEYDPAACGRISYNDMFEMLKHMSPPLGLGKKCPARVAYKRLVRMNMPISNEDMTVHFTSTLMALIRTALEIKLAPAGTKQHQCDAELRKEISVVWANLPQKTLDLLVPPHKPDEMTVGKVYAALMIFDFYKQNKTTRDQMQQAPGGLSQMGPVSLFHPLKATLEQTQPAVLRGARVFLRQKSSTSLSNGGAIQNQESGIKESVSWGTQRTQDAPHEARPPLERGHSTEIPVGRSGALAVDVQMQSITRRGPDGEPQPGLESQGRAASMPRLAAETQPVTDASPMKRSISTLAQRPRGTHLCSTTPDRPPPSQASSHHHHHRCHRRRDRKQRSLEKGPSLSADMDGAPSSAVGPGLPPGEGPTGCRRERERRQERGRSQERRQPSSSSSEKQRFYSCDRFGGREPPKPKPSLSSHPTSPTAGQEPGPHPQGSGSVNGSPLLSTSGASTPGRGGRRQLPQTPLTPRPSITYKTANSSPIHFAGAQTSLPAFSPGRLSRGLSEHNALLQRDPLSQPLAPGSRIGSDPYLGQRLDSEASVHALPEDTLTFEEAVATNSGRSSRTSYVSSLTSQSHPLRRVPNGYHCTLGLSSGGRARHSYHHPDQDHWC
Chain of N-type calcium channel subunits (α1B, α2δ, and β3a) (P54289 25-1103 partner): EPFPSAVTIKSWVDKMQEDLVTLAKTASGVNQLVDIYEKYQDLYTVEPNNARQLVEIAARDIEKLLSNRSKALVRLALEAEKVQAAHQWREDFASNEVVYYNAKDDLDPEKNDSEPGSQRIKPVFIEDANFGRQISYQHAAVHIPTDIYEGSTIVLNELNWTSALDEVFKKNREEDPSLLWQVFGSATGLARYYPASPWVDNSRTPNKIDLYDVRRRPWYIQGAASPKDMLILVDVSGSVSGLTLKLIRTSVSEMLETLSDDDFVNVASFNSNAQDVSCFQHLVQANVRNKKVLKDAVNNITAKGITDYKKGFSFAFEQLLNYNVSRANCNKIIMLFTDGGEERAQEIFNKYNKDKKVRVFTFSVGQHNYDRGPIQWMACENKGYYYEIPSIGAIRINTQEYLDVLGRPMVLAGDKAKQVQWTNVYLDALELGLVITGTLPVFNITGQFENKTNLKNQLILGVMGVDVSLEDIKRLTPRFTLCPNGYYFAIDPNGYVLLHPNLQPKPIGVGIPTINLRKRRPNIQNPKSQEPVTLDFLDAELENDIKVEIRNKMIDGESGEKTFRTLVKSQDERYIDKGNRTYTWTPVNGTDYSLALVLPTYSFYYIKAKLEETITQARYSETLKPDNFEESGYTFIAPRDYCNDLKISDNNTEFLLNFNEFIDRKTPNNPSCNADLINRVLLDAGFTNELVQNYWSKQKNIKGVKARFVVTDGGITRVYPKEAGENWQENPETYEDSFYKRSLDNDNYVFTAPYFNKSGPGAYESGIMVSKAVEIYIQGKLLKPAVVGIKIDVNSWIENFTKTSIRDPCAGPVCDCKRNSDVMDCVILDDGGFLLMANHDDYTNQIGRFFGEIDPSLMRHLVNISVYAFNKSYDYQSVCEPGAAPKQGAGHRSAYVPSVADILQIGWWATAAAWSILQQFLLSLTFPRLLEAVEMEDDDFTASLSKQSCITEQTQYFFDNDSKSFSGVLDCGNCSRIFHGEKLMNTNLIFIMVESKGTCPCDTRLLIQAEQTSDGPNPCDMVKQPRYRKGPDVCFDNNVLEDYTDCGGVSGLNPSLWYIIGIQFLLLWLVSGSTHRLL
Chain of N-type calcium channel subunits (α1B, α2δ, and β3a) (P54284 whole entry partner): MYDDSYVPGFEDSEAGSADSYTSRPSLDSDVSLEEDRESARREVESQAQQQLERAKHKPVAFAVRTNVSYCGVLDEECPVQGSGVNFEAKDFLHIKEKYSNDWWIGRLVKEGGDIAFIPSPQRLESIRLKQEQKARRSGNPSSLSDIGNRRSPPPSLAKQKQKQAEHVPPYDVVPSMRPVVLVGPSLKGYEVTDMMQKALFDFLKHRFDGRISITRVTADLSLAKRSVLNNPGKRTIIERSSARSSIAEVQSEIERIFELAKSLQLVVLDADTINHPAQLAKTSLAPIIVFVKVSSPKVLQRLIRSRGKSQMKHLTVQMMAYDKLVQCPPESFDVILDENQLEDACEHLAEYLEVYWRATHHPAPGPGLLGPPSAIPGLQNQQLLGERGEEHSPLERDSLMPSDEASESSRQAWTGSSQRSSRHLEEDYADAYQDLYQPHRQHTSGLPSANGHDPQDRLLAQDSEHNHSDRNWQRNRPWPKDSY

Consider `O=C(NC[C@H]1CC[C@@H](S(=O)(=O)c2cccc(C(F)(F)F)c2)CC1)c1ccc(F)c(C(F)(F)F)c1` [Compound 31, 4-fluoro-3-(trifluoromethyl)-N-(((1S,4S)-4-(3-(trifluoromethyl)phenylsulfonyl)cyclohexyl)methyl)benzamide], for which the results for the IC50 in assay [1], in assay [2] and in assay [3] were 360 nM, 5540 nM and 1150 nM, respectively.
For the compound `Cn1nc(C(F)(F)F)cc1C(=O)NC[C@H]1CC[C@@H](S(=O)(=O)c2cccc(C(F)(F)F)c2)CC1` [Compound 32, 1-methyl-3-(trifluoromethyl)-N-(((1S,4S)-4-(3-(trifluoromethyl)phenylsulfonyl)cyclohexyl)methyl)-1H-pyrazole-5-carboxamide], the IC50 was found to be 440 nM in assay [1], 2690 nM in assay [2] and 500 nM in assay [3].
Take `O=C(CNC[C@H]1CC[C@@H](S(=O)(=O)c2cccc(C(F)(F)F)c2)CC1)NC1CCCCC1` [Compound 36, N-cyclohexyl-2-(((1S,4S)-4-(3-(trifluoromethyl)phenylsulfonyl)cyclohexyl)methylamino)acetamide]: the IC50 came out at 740 nM in assay [1], 5110 nM in assay [2] and 5250 nM in assay [3].
`O=C(CNC[C@H]1CC[C@@H](S(=O)(=O)c2cccc(C(F)(F)F)c2)CC1)NCC(F)(F)F` [Compound 37, N-(2,2,2-trifluoroethyl)-2-(((1S,4S)-4-(3-(trifluoromethyl)phenylsulfonyl)cyclohexyl)methylamino)acetamide]: the IC50 in assay [1] stood at 1310 nM; in assay [2], 3620 nM; in assay [3], 9280 nM.
Taken in the same sequence, the figures for `O=C(N[C@H]1CC[C@@H](S(=O)(=O)c2cccc(C(F)(F)F)c2)CC1)c1cc(C(F)(F)F)ccn1` [Compound 42, 4-(trifluoromethyl)-N-((1S,4S)-4-(3-(trifluoromethyl)phenylsulfonyl)cyclohexyl)picolinamide] were 480 nM, 2860 nM and 1510 nM.
Turning to `O=C(N[C@H]1CC[C@@H](S(=O)(=O)c2cccc(C(F)(F)F)c2)CC1)c1cc(-c2ccc(F)cc2)n[nH]1` [Compound 46, 3-(4-fluorophenyl)-N-((1S,4S)-4-(3-(trifluoromethyl)phenylsulfonyl)cyclohexyl)-1H-pyrazole-5-carboxamide], the results for the IC50 in assay [1], in assay [2] and in assay [3] were 1060 nM, 910 nM and 1250 nM, respectively.
Taken in the same sequence, the figures for `O=C(CN[C@H]1CC[C@@H](S(=O)(=O)c2cccc(C(F)(F)F)c2)CC1)NCC(F)(F)F` [Compound 48, N-(2,2,2-trifluoroethyl)-2-((1S,4S)-4-(3-(trifluoromethyl)phenylsulfonyl)cyclohexylamino)acetamide] were 1650 nM, 2330 nM and 1430 nM.
As to `CC(C)(C)NC(=O)CN[C@H]1CC[C@@H](S(=O)(=O)c2cccc(C(F)(F)F)c2)CC1` [Compound 49, N-tert-butyl-2-((1S,4S)-4-(3-(trifluoromethyl)phenylsulfonyl)cyclohexylamino)acetamide], the half-inhibitory concentration (IC50) in assay [1] is 200 nM; in assay [2] it was over 10000 nM; in assay [3], over 10000 nM.
Turning to `CN(C(=O)CN[C@H]1CC[C@@H](S(=O)(=O)c2cccc(C(F)(F)F)c2)CC1)C(C)(C)C` [Compound 50, N-tert-butyl-N-methyl-2-((1S,4S)-4-(3-(trifluoromethyl)phenylsulfonyl)cyclohexylamino)acetamide], the IC50 in assay [1] is 90 nM; in assay [2], over 10000 nM; in assay [3], over 10000 nM.
Turning to `CC(C)NC(=O)CN[C@H]1CC[C@@H](S(=O)(=O)c2cccc(C(F)(F)F)c2)CC1` [Compound 52, N-isopropyl-2-((1S,4S)-4-(3-(trifluoromethyl)phenylsulfonyl)cyclohexylamino)acetamide], the 50% inhibitory concentration (IC50) is 1540 nM in assay [1], 790 nM in assay [2] and 860 nM in assay [3].
Turning to `Cc1cc(NC(=O)CN[C@H]2CC[C@@H](S(=O)(=O)c3cccc(C(F)(F)F)c3)CC2)on1` [Compound 54, N-(3-methylisoxazol-5-yl)-2-((1S,4S)-4-(3-(trifluoromethyl)phenylsulfonyl)cyclohexylamino)acetamide], the IC50 was 4630 nM in assay [1], 7290 nM in assay [2] and over 10000 nM in assay [3].
With `O=C(CN[C@H]1CC[C@@H](S(=O)(=O)c2cccc(C(F)(F)F)c2)CC1)NC1CCCCC1` [Compound 56, N-cyclohexyl-2-((1S,4S)-4-(3-(trifluoromethyl)phenylsulfonyl)cyclohexylamino)acetamide], the 50% inhibitory concentration (IC50) in assay [1] is 260 nM; in assay [2], 480 nM; in assay [3], 820 nM.
Turning to `O=C(CN[C@H]1CC[C@@H](S(=O)(=O)c2cccc(C(F)(F)F)c2)CC1)Nc1ccccn1` [Compound 57, N-(pyridin-2-yl)-2-((1S,4S)-4-(3-(trifluoromethyl)phenylsulfonyl)cyclohexylamino)acetamide], the concentration for half-maximal inhibition (IC50) is 860 nM in assay [1], 1530 nM in assay [2] and 4940 nM in assay [3].
For the compound `O=C(N[C@H]1CC[C@H](S(=O)(=O)c2cccc(C(F)(F)F)c2)CC1)c1ccc(F)c(C(F)(F)F)c1` [Compound 58, 4-fluoro-3-(trifluoromethyl)-N-((1R,4R)-4-(3-(trifluoromethyl)phenylsulfonyl)cyclohexyl)benzamide], the IC50 in assay [1] was found to be 800 nM; in assay [2], 1480 nM; in assay [3] it was 1850 nM.
As to `O=C(N[C@H]1CC[C@H](S(=O)(=O)c2cccc(C(F)(F)F)c2)CC1)c1cc(F)cc(Cl)c1` [Compound 60, 3-chloro-5-fluoro-N-((1R,4R)-4-(3-(trifluoromethyl)phenylsulfonyl)cyclohexyl)benzamide], the IC50 in assay [1] was 370 nM; in assay [2] it was 3900 nM; in assay [3], 6440 nM.
For `O=C(N[C@H]1CC[C@H](S(=O)(=O)c2cccc(C(F)(F)F)c2)CC1)c1ccc(C(F)(F)F)cn1` [Compound 62, 5-(trifluoromethyl)-N-((1R,4R)-4-(3-(trifluoromethyl)phenylsulfonyl)cyclohexyl)picolinamide], the IC50 is 3480 nM in assay [1], 550 nM in assay [2] and 1080 nM in assay [3].
`O=C(N[C@H]1CC[C@H](S(=O)(=O)c2cccc(C(F)(F)F)c2)CC1)c1cc(F)cc(C(F)(F)F)c1` [Compound 65, 3-fluoro-5-(trifluoromethyl)-N-((1R,4R)-4-(3-(trifluoromethyl)phenylsulfonyl)cyclohexyl)benzamide]: the IC50 in assay [1] is 550 nM; in assay [2] it was over 10000 nM; in assay [3] it was over 10000 nM.
With `O=C(N[C@H]1CC[C@H](S(=O)(=O)c2cccc(C(F)(F)F)c2)CC1)C1(C(F)(F)F)CCC1` [Compound 66, 1-(trifluoromethyl)-N-((1R,4R)-4-(3-(trifluoromethyl)phenylsulfonyl)cyclohexyl)cyclobutanecarboxamide], the IC50 in assay [1] is 8990 nM; in assay [2] it was over 10000 nM; in assay [3] it was over 10000 nM.
With `CC(C)(C)NC(=O)CN[C@H]1CC[C@H](S(=O)(=O)c2cccc(C(F)(F)F)c2)CC1` [Compound 69, N-tert-butyl-2-((1R,4R)-4-(3-(trifluoromethyl)phenylsulfonyl)cyclohexylamino)acetamide], the IC50 is 1650 nM in assay [1], over 10000 nM in assay [2] and over 10000 nM in assay [3].
For `CN(C(=O)CN[C@H]1CC[C@H](S(=O)(=O)c2cccc(C(F)(F)F)c2)CC1)C(C)(C)C` [Compound 70, N-tert-butyl-N-methyl-2-((1R,4R)-4-(3-(trifluoromethyl)phenylsulfonyl)cyclohexylamino)acetamide], the IC50 in assay [1] was found to be 1220 nM; in assay [2], 2580 nM; in assay [3], 8810 nM.
Turning to `Cc1cc(NC(=O)CN[C@H]2CC[C@H](S(=O)(=O)c3cccc(C(F)(F)F)c3)CC2)on1` [Compound 74, N-(3-methylisoxazol-5-yl)-2-((1R,4R)-4-(3-(trifluoromethyl)phenylsulfonyl)cyclohexylamino)acetamide], the IC50 in assay [1] came to 4950 nM; in assay [2], 1210 nM; in assay [3] it was 1530 nM.
`O=C(CN[C@H]1CC[C@H](S(=O)(=O)c2cccc(C(F)(F)F)c2)CC1)NC1CCCCC1` [Compound 76, N-cyclohexyl-2-((1R,4R)-4-(3-(trifluoromethyl)phenylsulfonyl)cyclohexylamino)acetamide]: the IC50 came out at 590 nM in assay [1], 510 nM in assay [2] and 1030 nM in assay [3].
Regarding `O=C(N[C@H]1CC[C@](F)(S(=O)(=O)c2cccc(C(F)(F)F)c2)CC1)c1cc(C(F)(F)F)ccn1` [Compound 79, N-((1R,4R)-4-fluoro-4-(3-(trifluoromethyl)phenylsulfonyl)cyclohexyl)-4-(trifluoromethyl)picolinamide], the IC50 in assay [1] came to 630 nM; in assay [2], 440 nM; in assay [3], 1190 nM.
As to `O=C(N[C@H]1CC[C@](F)(S(=O)(=O)c2cccc(C(F)(F)F)c2)CC1)c1nc2cc(C(F)(F)F)ccc2[nH]1` [Compound 80, N-((1R,4R)-4-fluoro-4-(3-(trifluoromethyl)phenylsulfonyl)cyclohexyl)-5-(trifluoromethyl)-1H-benzo[d]imidazole-2-carboxamide], the IC50 in assay [1] turned out to be 4310 nM; in assay [2] it was 460 nM; in assay [3], 900 nM.
